According to patent US8394578B2, “Method of forming resist pattern and negative tone-development resist composition” (Tokyo Ohka Kogyo Co., Ltd., priority 2010, dated 2013):

Experiment: Solubility in organic solvent (Test Example 1)
Assay type: physicochemical
Conditions: monomer, stirred for 1 hour; for degree of dissolution in MEK: 1 g added to MEK at 25° C.; for degree of dissolution in PGME: 1 g added to PGME at 25° C.; for degree of dissolution in PGMEA: 1 g added to PGMEA at 25° C.; for degree of dissolution in Butyl acetate: 1 g added to butyl acetate at 25° C.
From the text: Among the monomers used in Polymer Synthesis Examples 1 to 4 and Comparative Polymer Synthesis Examples 1 to 4, with respect to compounds (m0-1) and (m0-2) which are classified as a structural unit (a0), compounds (m2-1) and (m2-2) which are classified as a structural unit (a2), a compound in which the —S(═O)2— portion of the compound (m0-1) has been replaced with —C(═O)— (a compound in which the cyclic group within the compound (m0-1) has been replaced with the cyclic group of the compound (m2-1), hereafter referred to as compound (m2-3)), and polymeric compounds 1, 1′ and 4′, the solubility in an organic solvent was evaluated as follows.
1 g of each compound was added to an organic solvent indicated in Table 1 at 25° C., and stirred for 1 hour. After the stirring, the degree of dissolution of each compound in each organic solvent was evaluated with the following criteria. […]

Row | Structure (SMILES) | degree of dissolution in MEK | degree of dissolution in PGME | degree of dissolution in PGMEA | degree of dissolution in Butyl acetate
1 | C=C(C)C(=O)OC1CCOC1=O (stereo not shown) [Compound (m2-2)] | A (40% by weight or more) | A (40% by weight or more) | A (40% by weight or more) | A (40% by weight or more)
2 | C=C(C)C(=O)OCC(=O)OC1C2CC3C1OS(=O)(=O)C3C2 (stereo not shown) [Compound (m0-1)] | B (15% by weight or more but less than 40% by weight) | C (7% by weight or more but less than 15% by weight) | C (7% by weight or more but less than 15% by weight) | C (7% by weight or more but less than 15% by weight)
3 | C=C(C)C(=O)OC1C2CC3C(=O)OC1C3C2 (stereo not shown) [Compound (m2-1)] | B (15% by weight or more but less than 40% by weight) | C (7% by weight or more but less than 15% by weight) | B (15% by weight or more but less than 40% by weight) | C (7% by weight or more but less than 15% by weight)
4 | C=C(C)C(=O)OC1C2CC3C1OS(=O)(=O)C3C2 (stereo not shown) [Compound (m0-2)] | B (15% by weight or more but less than 40% by weight) | C (7% by weight or more but less than 15% by weight) | C (7% by weight or more but less than 15% by weight) | D (less than 7% by weight)
